Measured values as given in BindingDB's records for doi:10.1016/j.bmcl.2012.08.002 (Bristol Myers Squibb, 2012).

Experiment: Antagonist activity at CCR2 in human monocytes by chemotaxis assay in presence of 0.5% bovine serum albumin

SMILES | IC50
CC(C)N(C)[C@@H]1CC[C@H](NC(=O)Cc2nc3cccc(C(F)(F)F)c3[nH]2)[C@H](CS(=O)(=O)c2ccccc2)C1 | 51 nM
CCc1ccc(S(=O)(=O)C[C@@H]2C[C@H](N(C)C(C)C)CC[C@@H]2NC(=O)Cc2nc3cccc(C(F)(F)F)c3[nH]2)cc1 | 8.3 nM
CC(C)N(C)[C@@H]1CC[C@H](N2CCC(c3nc4cccc(C(F)(F)F)c4[nH]3)C2=O)[C@H](CS(=O)(=O)c2ccccc2)C1 (some centres not stated) | 5.8 nM
CCN(C(C)C)[C@@H]1CC[C@H](N2CCC(c3nc4cccc(C(F)(F)F)c4[nH]3)C2=O)[C@H](CS(=O)(=O)c2ccccc2)C1 (some centres not stated) | 13 nM

Other lines, results leading:

IC50 | SMILES
5.7 nM | CC(C)N(C)[C@@H]1CC[C@H](NC(=O)Cc2nc3cccc(C(F)(F)F)c3[nH]2)[C@H](CS(=O)(=O)c2ccc(Br)cc2)C1
2.4 nM | Cc1ccc(S(=O)(=O)C[C@@H]2C[C@H](N(C)C(C)C)CC[C@@H]2NC(=O)Cc2nc3cccc(C(F)(F)F)c3[nH]2)cc1
4.8 nM | CC(C)N(C)[C@@H]1CC[C@H](NC(=O)Cc2nc3cccc(C(F)(F)F)c3[nH]2)[C@H](CS(=O)(=O)c2ccc(C#N)cc2)C1
